Measured values taken from PMC4373589 (Journal of medicinal chemistry, 2013).

Columns and labels:
mu opioid receptor (MOR) [1] = molecular target: T1, mu opioid receptor (MOR) (Mus musculus, UniProt P42866); assay: MOR competitive radioligand binding; set-up: species or system mice
[2] = molecular target: kappa opioid receptor (KOR) (Mus musculus, UniProt P33534); assay: biochemical; assay type: binding, mice
[3] = molecular target: delta opioid receptor (DOR) (Mus musculus, UniProt P32300); assay: DOR competitive radioligand binding; set-up: species or system mice
morphine dependent mice = assay: Opioid withdrawal assay in morphine-pelleted mice; assay type: in vivo; details: 1 mg/kg s.c.; morphine-pelleted mice; counted over 20 minutes
mu opioid receptor (MOR) [4] = molecular target: T1, mu opioid receptor (MOR); assay: MOR [35S]-GTPγS functional assay; assay type: biochemical, mice

Sequence of delta opioid receptor (DOR) (P32300 whole entry): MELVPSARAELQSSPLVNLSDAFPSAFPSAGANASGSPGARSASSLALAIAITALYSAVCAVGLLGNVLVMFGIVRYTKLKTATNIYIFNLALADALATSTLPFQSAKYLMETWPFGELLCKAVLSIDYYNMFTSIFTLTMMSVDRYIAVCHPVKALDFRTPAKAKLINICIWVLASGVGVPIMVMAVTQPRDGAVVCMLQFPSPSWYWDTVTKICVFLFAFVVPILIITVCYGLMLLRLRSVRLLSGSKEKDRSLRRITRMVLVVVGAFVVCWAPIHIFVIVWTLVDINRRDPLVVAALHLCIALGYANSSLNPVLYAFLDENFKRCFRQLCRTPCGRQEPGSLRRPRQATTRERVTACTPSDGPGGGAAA
T1 sequence (P42866 whole entry): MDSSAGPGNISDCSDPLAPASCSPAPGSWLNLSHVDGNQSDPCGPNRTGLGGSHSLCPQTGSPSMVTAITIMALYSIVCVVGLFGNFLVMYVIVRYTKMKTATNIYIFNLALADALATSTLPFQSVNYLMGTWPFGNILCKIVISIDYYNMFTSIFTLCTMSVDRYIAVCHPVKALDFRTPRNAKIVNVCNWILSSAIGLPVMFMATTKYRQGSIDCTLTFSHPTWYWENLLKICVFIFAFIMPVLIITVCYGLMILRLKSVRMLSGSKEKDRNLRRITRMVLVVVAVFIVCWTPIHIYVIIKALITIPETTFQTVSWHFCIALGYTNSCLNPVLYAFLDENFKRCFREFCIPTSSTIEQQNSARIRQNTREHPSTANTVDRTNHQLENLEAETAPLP
Sequence of kappa opioid receptor (KOR) (P33534 whole entry): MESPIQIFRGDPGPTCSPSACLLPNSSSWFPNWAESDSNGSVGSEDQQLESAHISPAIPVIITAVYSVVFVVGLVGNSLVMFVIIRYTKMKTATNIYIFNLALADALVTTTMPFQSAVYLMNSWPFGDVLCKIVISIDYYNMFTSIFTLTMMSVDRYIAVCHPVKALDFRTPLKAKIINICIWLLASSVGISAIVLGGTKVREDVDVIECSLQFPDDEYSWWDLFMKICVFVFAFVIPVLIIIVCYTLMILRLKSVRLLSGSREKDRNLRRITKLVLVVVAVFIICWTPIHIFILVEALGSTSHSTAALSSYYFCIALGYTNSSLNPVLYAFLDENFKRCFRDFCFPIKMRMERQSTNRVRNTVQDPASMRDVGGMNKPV

SMILES | Ki (mu opioid receptor (MOR) [1]) [nM] | Selectivity to the MOR over the KOR and the DOR (mu opioid receptor (MOR) [1]) | Selectivity δ/μ (mu opioid receptor (MOR) [1]; Table 1, Ki ratio) | Selectivity κ/μ (mu opioid receptor (MOR) [1]; Table 1, Ki ratio) | Ki [2] [nM] | Ki [3] [nM] | Escape jumps (morphine dependent mice) | Wet dog shakes (morphine dependent mice) | MOR agonism / efficacy in [35S]-GTPγS binding assay (in words) (mu opioid receptor (MOR) [4]) | Selectivity δ/κ ([2]; Table 1, Ki ratio)
O=C(O[C@@]12CCC(=O)[C@@H]3Oc4c(O)ccc5c4[C@@]31CCN(CC1CC1)[C@@H]2C5)c1cc2ccccc2cn1 [Compound 6, 17-cyclopropylmethyl-4,5α-epoxy-3-hydroxy-14β-O-(isoquinolyl-3’-carboxy)morphinan-6-one] | 68.4 ± 6 | above 30 fold | >146 | >146 | > 10000 | > 10000 | – | – | – | –
O=C(O[C@@]12CCC(=O)[C@@H]3Oc4c(O)ccc5c4[C@@]31CCN(CC1CC1)[C@@H]2C5)c1ccncc1 [Compound 4, 17-cyclopropylmethyl-4,5α-epoxy-3-hydroxy-14β-O-(pyridyl-4’-carboxy)morphinan-6-one] | 5.58 ± 1.34 | – | – | – | 49.2 ± 20.4 | 405 ± 235 | – | – | – | –
O=C(N[C@@]12CCC(=O)[C@@H]3Oc4c(O)ccc5c4[C@@]31CCN(CC1CC1)[C@@H]2C5)c1ccncc1 [Compound 12, 17-cyclopropylmethyl-4,5α-epoxy-3-hydroxy-14β-N-[(4’-pyridyl)carboxamido]morphinan-6-one] | 0.82 ± 0.33 | – | – | – | 0.33 ± 0.01 | 10.9 ± 1.3 | – | – | – | –
O=C1CC[C@@]2(O)[C@H]3Cc4ccc(O)c5c4[C@@]2(CCN3CC2CC2)[C@H]1O5 [NTX, naltrexone, reference compound] | – | – | – | – | – | – | over twenty times | above seven times | – | –
O=C(CNC(=O)c1ccccn1)N[C@@]12CCC(=O)[C@@H]3Oc4c(O)ccc5c4[C@@]31CCN(CC1CC1)[C@@H]2C5 [Compound 20, 17-cyclopropylmethyl-4,5α-epoxy-3-hydroxy-14β-N-{2’-[(pyridin-2”-yl)carboxamido]acetamido}morphinan-6-one] | 0.3 ± 0.01 | – | – | – | 0.14 ± 0.01 | 0.37 ± 0.04 | – | – | low efficacy MOR partial agonists | –
O=C(N[C@@]12CCC(=O)[C@@H]3Oc4c(O)ccc5c4[C@@]31CCN(CC1CC1)[C@@H]2C5)c1ccccc1 [Compound 13, 17-cyclopropylmethyl-4,5α-epoxy-3-hydroxy-14β-N-(benzamido)morphinan-6-one] | 4.34 ± 0.7 | – | – | – | 0.12 ± 0.001 | 57.3 ± 4.3 | – | – | – | –
O=C(O[C@@]12CCC(=O)[C@@H]3Oc4c(O)ccc5c4[C@@]31CCN(CC1CC1)[C@@H]2C5)c1cccnc1 [Compound 3, 17-cyclopropylmethyl-4,5α-epoxy-3-hydroxy-14β-O-(pyridyl-3’- carboxy)morphinan-6-one] | 1.59 ± 0.61 | above 30 fold | – | – | 47.8 ± 8.5 | 170 ± 12.6 | – | – | – | –
O=C(Cc1ccccn1)N[C@@]12CCC(=O)[C@@H]3Oc4c(O)ccc5c4[C@@]31CCN(CC1CC1)[C@@H]2C5 [Compound 18, 17-cyclopropylmethyl-4,5α-epoxy-3-hydroxy-14β-N-[2’-(pyridin-2”-yl)acetamido]morphinan-6-one] | 0.29 ± 0.04 | – | – | – | 0.19 ± 0.03 | 3.92 ± 0.12 | – | – | MOR partial agonist with relatively high efficacy | –
O=C(N[C@@]12CCC(=O)[C@@H]3Oc4c(O)ccc5c4[C@@]31CCN(CC1CC1)[C@@H]2C5)c1ccc2ccccc2n1 [Compound 15, 17-cyclopropylmethyl-4,5α-epoxy-3-hydroxy-14β-N-[(2’-quinolyl)carboxamido]morphinan-6-one] | 9.09 ± 4.94 | – | – | – | 0.26 ± 0.01 | 15.1 ± 0.6 | – | – | – | –
O=C(O[C@@]12CCC(=O)[C@@H]3Oc4c(O)ccc5c4[C@@]31CCN(CC1CC1)[C@@H]2C5)c1ccccc1 [Compound 5, 17-cyclopropylmethyl-4,5α-epoxy-3-hydroxy-14β-O-(benzoyloxy)morphinan-6-one] | 123 ± 38.2 | – | >81 | – | 586 ± 32.4 | > 10000 | – | – | – | >17
O=C(N[C@@]12CCC(=O)[C@@H]3Oc4c(O)ccc5c4[C@@]31CCN(CC1CC1)[C@@H]2C5)c1cnc2ccccc2c1 [Compound 16, 17-cyclopropylmethyl-4,5α-epoxy-3-hydroxy-14β-N-[(3’-quinolyl)carboxamido]morphinan-6-one] | 1.13 ± 0.25 | – | – | – | 0.13 ± 0.02 | 1.48 ± 0.05 | – | – | – | –
O=C(N[C@@]12CCC(=O)[C@@H]3Oc4c(O)ccc5c4[C@@]31CCN(CC1CC1)[C@@H]2C5)c1ccc2ccccc2c1 [Compound 17] | 6.22 ± 4.01 | – | – | – | 0.33 ± 0.02 | 10.5 ± 1.4 | – | – | – | –
O=C(O[C@@]12CCC(=O)[C@@H]3Oc4c(O)ccc5c4[C@@]31CCN(CC1CC1)[C@@H]2C5)c1ccccn1 [Compound 2, 17-cyclopropylmethyl-4,5α-epoxy-3-hydroxy-14β-O-(pyridyl-2’-carboxy)morphinan-6-one] | 0.14 ± 0.03 | above 30 fold | – | – | 25.5 ± 6.5 | 117 ± 18 | – | – | – | –
O=C(O[C@@]12CCC(=O)[C@@H]3Oc4c(O)ccc5c4[C@@]31CCN(CC1CC1)[C@@H]2C5)c1ccc2ccccc2c1 [Compound 9, 17-cyclopropylmethyl-4,5α-epoxy-3-hydroxy-14β-O-(2-naphthoyloxy)morphinan-6-one] | 225 ± 46.6 | – | – | – | 46.6 ± 13.5 | 907 ± 193 | – | – | – | –
O=C(CCc1ccccn1)N[C@@]12CCC(=O)[C@@H]3Oc4c(O)ccc5c4[C@@]31CCN(CC1CC1)[C@@H]2C5 [Compound 19, 17-cyclopropylmethyl-4,5α-epoxy-3-hydroxy-14β-N-[3’-(pyridin-2”-yl)propanamido]morphinan-6-one] | 0.32 ± 0.04 | – | – | – | 0.17 ± 0.02 | 9.1 ± 0.5 | – | – | low efficacy MOR partial agonists | –
O=C(O[C@@]12CCC(=O)[C@@H]3Oc4c(O)ccc5c4[C@@]31CCN(CC1CC1)[C@@H]2C5)c1ccc2ccccc2n1 [Compound 7, 17-cyclopropylmethyl-4,5α-epoxy-3-hydroxy-14β-O-(quinolyl-2’-carboxy)morphinan-6-one] | 1.44 ± 0.32 | – | – | – | 67.2 ± 36.7 | 22.8 ± 19.5 | – | – | – | –
O=C(O[C@@]12CCC(=O)[C@@H]3Oc4c(O)ccc5c4[C@@]31CCN(CC1CC1)[C@@H]2C5)c1cnc2ccccc2c1 [Compound 8, 17-cyclopropylmethyl-4,5α-epoxy-3-hydroxy-14β-O-(quinolyl-3’-carboxy)morphinan-6-one] | 2.69 ± 0.72 | above 30 fold | – | – | 148 ± 55.5 | 818 ± 507 | – | – | – | –
